Counter-ions that a name gives are not always drawn.

The term IC50 denotes the concentration at which inhibition is half-maximal. Low values mean inhibition by little substance, high ones a need for much substance.

One assay concerns the target Abl kinase (Homo sapiens, UniProt P00519). Kind of assay: biochemical. The note with it: Abl IC50 (nM), Abl kinase (Invitrogen, 20 ng/well), Abltide 100 μM, ATP 500 nM, 37° C. for 60 minutes, top concentration 10 uM.
For a further assay, the target named is T1, Abl (T315I) (Homo sapiens, UniProt P00519, T315I).
T1 construct: purchased Upstate
Kind of assay: Abl (T315I) Kinase Assay (KinaseGlo luminescent detection of residual ATP). Format: biochemical. The settings on record: Abl (T315I) IC50 (nM), Abl (T315I) (Upstate, 17 ng/well), Abltide 100 uM, ATP 500 nM, 60 minutes at 37° C. As for the experimental part: The assay was performed similarly to the Abl kinase assay. Abl (T315I) (Upstate, 17 ng/well); Abltide substrate (100 uM) and ATP (500 nM) comprised the reaction mixture. Compound was similarly diluted, and the reaction plate was incubated for 60 minutes at 37° C.
(In general: Kinase-Glo reads ATP consumption through a luciferase reaction.)

Turning to `O=S(=O)(c1ccc(Nc2ncc(/C=C/c3ccc4[nH]ncc4c3)cn2)cc1)C1CCNCC1` [{5-[2-(1H-Indazol-5-yl)-vinyl]-pyrimidin-2-yl}-[4-(piperidine-4-sulfonyl)-phenyl]-amine], the IC50 stood at 163 nM at Abl kinase and 262 nM on Abl (T315I).
On the same counts, the results for `O=S(=O)(c1ccc(Nc2ncc(/C=C/c3cccc4[nH]ncc34)cn2)cc1N1CCNCC1)N1CCNCC1` [5-[(E)-2-(1H-indazol-4-yl)vinyl]-N-[3-piperazin-1-yl-4-piperazin-1-ylsulfonyl)phenyl]pyrimidin-2-amine] are 20 nM and 336 nM.
Take `O=S(=O)(c1ccc(Nc2ncc(/C=C/c3cccc(-c4cn[nH]c4)c3)cn2)cc1)C1CCNCC1` [5-(3-(1H-pyrazol-4-yl)styryl)-N-(4-(piperidin-4-ylsulfonyl)phenyl)-pyrimidin-2-amine Hydrochloride]: the 50% inhibitory concentration (IC50) was found to be 1740 nM against Abl kinase and 1980 nM on Abl (T315I).
With `O=S(=O)(NCCN1CCCC1)c1ccc(Nc2ncc(/C=C/c3cccc4[nH]ccc34)cn2)cc1` [4-({5-[(E)-2-(1H-indol-4-yl)vinyl]pyrimidin-2-yl}amino)--N-[4-(2-pyrrolidin-1-ylethyl)benzenesulfonamide], the IC50 on Abl kinase came to 26 nM; on Abl (T315I) it was 738 nM.
On the same counts, the results for `C(=C\c1cccc2[nH]ccc12)/c1cnc(Nc2ccc(C3CCNCC3)cc2)nc1` [{5-[2-(1H-Indol-4-yl)-vinyl]-pyrimidin-2-yl}-(4-piperidin-4-yl-phenyl)-amine] are 42 nM and 1320 nM.
For `O=S(=O)(c1ccc(Nc2ncc(/C=C/c3ccc(-c4ncc[nH]4)cc3)cn2)cc1)C1CCNCC1` [5-((E)-(4-(1H-imidazol-2-yl)styryl))-N-(4-(piperidin-4-ylsulfonyl)phenyl)pyrimidin-2-amine hydrochloride], the IC50 is 374 nM against Abl kinase and 1290 nM at Abl (T315I).
Taken in the same sequence, the figures for `Nc1nc2ccc(/C=C/c3cnc(Nc4ccc(S(=O)(=O)C5CCNCC5)cc4)nc3)cc2s1` [6-[(E)-2-(2-{[4-(piperidin-4-ylsulfonyl)phenyl]amino}pyrimidin-5-yl)vinyl]-1,3-benzothiazol-2-amine trifluoroacetic acid salt] were 50 nM and 58 nM.
As to `Nc1nc2ccc(/C=C/c3cnc(Nc4ccc(S(=O)(=O)N5CCNCC5CO)cc4)nc3)cc2s1` (centres unmarked) [(1-{[4-({5-[(E)-2-(2-amino-1,3-benzothiazol-6-yl)vinyl]pyrimidin-2-yl}amino)phenyl]sulfonyl}piperazin-2-yl)methanol], the results for the IC50 at Abl kinase and against Abl (T315I) were 119 nM and 115 nM, respectively.
On to `O=S(=O)(c1ccc(Nc2ncc(/C=C/c3ccc(-c4cn[nH]c4)cc3)cn2)cc1)N1CCNCC1` [N-[4-(piperazin-1-ylsulfonyl)phenyl]-5-{(E)-2-[4-(1H-pyrazol-4-yl)phenyl]vinyl}pyrimidin-2-amine], for which the results for the IC50 on Abl kinase and against Abl (T315I) were 3800 nM and 1230 nM, respectively.
On the same counts, the results for `O=S(=O)(NC1CCNCC1)c1ccc(Nc2ncc(/C=C/c3cccc(O)c3)cn2)cc1` [4-{5-[2-(3-Hydroxy-phenyl)-vinyl]-pyrimidine-2-ylamino}-N-piperdin-4-yl-benzenesulfonamide Hydrochloride] are 4.6 nM and 36 nM.
Turning to `Nc1nc2c(/C=C/c3cnc(Nc4ccc(S(=O)(=O)C5CCNCC5)cc4)nc3)cccc2s1` [4-((E)-2-(2-(4-(piperidin-4-ylsulfonyl)phenylamino)pyrimidin-5-yl)vinyl)benzo[d]thiazol-2-amine Hydrochloride], the results for the IC50 against Abl kinase and on Abl (T315I) were 39 nM and 394 nM, respectively.
Turning to `O=S(=O)(CC1CCNCC1)c1ccc(Nc2ncc(/C=C/c3cccc(O)c3)cn2)cc1` [3-(2-{2-[4-(Piperidin-4-ylmethanesulfonyl)-phenylamino]-pyrimidin-5-yl}-vinyl)-phenol], the IC50 at Abl kinase was found to be 31 nM; at Abl (T315I), 96 nM.
Taken in the same sequence, the figures for `Nc1nc2ccc(/C=C/c3cnc(Nc4ccc(S(=O)(=O)N5CCNCC5)c(F)c4)nc3)cc2s1` [6-[(E)-2-(2-{[3-fluoro-4-ylsulfonyl)phenyl]amino}pyrimidin-5-yl)vinyl]-1,3-benzothiazol-2-amine] were 100 nM and 94 nM.
On the same counts, the results for `CN1CCN(S(=O)(=O)c2cccc(Nc3ncc(/C=C/c4cccc5[nH]ccc45)cn3)c2)CC1` [5-[(E)-2-(1H-indol-4-yl)vinyl]-N-{3-[(4-methylpiperazin-1-yl)sulfonyl]phenyl}pyrimidin-2-amine] are 784 nM and about 10000 nM.
On the same counts, the results for `Nc1nc2cc(/C=C/c3cnc(Nc4ccc(S(=O)(=O)C5CCNCC5)cc4)nc3)ccc2s1` [5-((E)-2-(2-(4-(piperidin-4-ylsulfonyl)phenylamino)pyrimidin-5-yl)vinyl)benzo[d]thiazol-2-amine Hydrochloride] are 101 nM and 416 nM.
With `Nc1nc2ccc(/C=C/c3cnc(Nc4ccc(S(=O)(=O)N5CCC(CO)CC5)cc4)nc3)cc2s1` [(1-{[4-({5-[(E)-2-(2-amino-yl)vinyl]pyrimidin-2-amino)phenyl]sulfonyl}piperidin-4-yl)methanol], the results for the IC50 against Abl kinase and at Abl (T315I) were 437 nM and 194 nM, respectively.
On the same counts, the results for `O=S(=O)(c1ccc(Nc2ncc(/C=C/c3ccc4c(c3)CC/C4=N/O)cn2)cc1)C1CCNCC1` [5-(2-{2-[4-(Piperidine-4-sulfonyl)-phenylaminol]-pyrimidin-5-yl}-vinyl)-indan-1-one oxime] are 2420 nM and 1800 nM.
Regarding `COCCN1CCN(S(=O)(=O)c2ccc(Nc3ncc(/C=C/c4ccc5nc(N)sc5c4)cn3)cc2)CC1` [6-[2-(2-{4-[4-(2-Methoxy-ethyl)-piperazine-1-sulfonyl]-phenylamino}-pyrimidin-5-yl)-vinyl]-benzothiazol-2-ylamine], the half-maximal inhibitory concentration (IC50) on Abl kinase is 1150 nM; against Abl (T315I), 380 nM.
Taken in the same sequence, the figures for `Nc1nc2ccc(/C=C/c3cnc(Nc4ccc(S(=O)(=O)NCCO)c(N5CCNCC5)c4)nc3)cc2s1` [4-({5-[(E)-2-(2-amino-1,3-benzothiazol-6-yl)vinyl]pyrimidin-2-yl}amino)-N-(2-hydroxyethyl)-2-piperazin-1-ylbenzenesulfonamide] were 585 nM and 354 nM.
Taken in the same sequence, the figures for `O=S(=O)(c1ccc(Nc2ncc(/C=C/c3cccc4[nH]ncc34)cn2)cc1)N(CCO)C1CCNCC1` [N-(2-hydroxyethyl)-4-({5-[(E)-2-(1H-indazol-4-yl)vinyl]pyrimidin-2-yl}amino)-N-piperidin-4-ylbenzenesulfonamide] were 77 nM and 251 nM.
Take `O=S(=O)(c1cccc(Nc2ncc(/C=C/c3cccc4[nH]ccc34)cn2)c1)N1CCNCC1` [5-[(E)-2-(1H-indol-4-yl)vinyl]-N-{3-(piperazin-1-ylsulfonyl)phenyl]pyrimidin-2-amine]: the IC50 was 244 nM against Abl kinase and about 10000 nM at Abl (T315I).
With `O=S(=O)(c1ccc(Nc2ncc(/C=C/c3cccc4[nH]ccc34)cn2)cc1)C1CCNCC1` [5-((E)-2-(1H-indol-4-yl)vinyl)-N-(4-(piperidin-4-2-amine], the IC50 against Abl kinase was determined as 6.3 nM; against Abl (T315I), 154 nM.
Turning to `O=S(=O)(c1ccc(Nc2ncc(/C=C/c3cccc(C(F)F)c3)cn2)cc1)C1CCNCC1` [5-(3-(difluoromethyl)styryl)-N-(4-piperidin-4-ylsulfonyl)phenyl)pyrimidin 2-amine. Triflate], the IC50 was 162 nM at Abl kinase and 486 nM on Abl (T315I).
Regarding `Nc1nc2ccc(/C=C/c3cnc(Nc4ccc(S(=O)(=O)N5CCNCC5)c(C(F)(F)F)c4)nc3)cc2s1` [6-[(E)-2-(2-{[4-(piperazin-1-ylsulfonyl)-3-(trifluoromethyl)phenyl]amino)pyrimidin-5-yl)vinyl]-1,3-benzothiazol-2-amine], the IC50 against Abl kinase came out at 1020 nM; at Abl (T315I), 2100 nM.
Taken in the same sequence, the figures for `Nc1nc2ccc(/C=C/c3cnc(Nc4ccc(S(=O)(=O)N5CCNCC5)c(N5CCNCC5)c4)nc3)cc2s1` [6-[(E)-2-(2-{[3-piperazin-1-yl-4-(piperazin-1-ylsulfonyl)phenyl]amino}pyrimidin-5-yl)vinyl]-1,3-benzothiazol-2-amine] were 318 nM and 152 nM.
Consider `Nc1noc2c(/C=C/c3cnc(Nc4ccc(S(=O)(=O)N5CCNCC5)c(NCCO)c4)nc3)cccc12` [2-{[5-({5-{(E)-2-(3-amino-1,2-benzisoxazol-7-yl)vinyl]pyrimidin-2-yl}amino)-2-(piperazin-1-ylsulfonyl)phenyl]amino}ethanol], for which the IC50 on Abl kinase amounted to 34 nM; on Abl (T315I), 1860 nM.
Taken in the same sequence, the figures for `O=C(Nc1nc2ccc(/C=C/c3cnc(Nc4ccc(S(=O)(=O)C5CCNCC5)cc4)nc3)cc2s1)c1cccc(C(F)(F)F)c1` [N-(6-((E)-2-(2-(4-(piperidin-4-ylsulfonyl)phenylamino)pyrimidin-5-(trifluoromethyl)benzamide Hydrochloride] were 967 nM and 332 nM.
Take `O=S(=O)(c1ccc(Nc2ncc(/C=C/c3cccc(-c4ncc[nH]4)c3)cn2)cc1)C1CCNCC1` [5-((E)-3-(1H-imidazol-2-yl)styryl))-N-(4-(piperidin-4-ylsulfonyl)phenyl)pyrimidin-2-amine]: the values for the IC50 against Abl kinase and against Abl (T315I) were 159 nM and 2720 nM, respectively.
On the same counts, the results for `Nc1nc2ccc(/C=C/c3cnc(Nc4ccc(S(=O)(=O)CC5CCNCC5)cc4)nc3)cc2s1` [6-(2-{2-[4-(Piperidin-4-ylmethanesulfonyl)-phenylamino]-pyrimidin-5-yl}-vinyl)-benzothiazol-2-ylamine] are 169 nM and 76 nM.
On Abl kinase, `OCCN1CCN(c2cccc(Nc3ncc(/C=C/c4cccc5[nH]ccc45)cn3)c2)CC1` [2-(4-(3-(5-((E)-2-(1H-indol-4-yl)vinyl)pyrimidin-2-ylamino)phenyl)piperazin-1-yl)ethanol Hydrochloride] gave an IC50 of 178 nM.

Source of the values: patent US20070149508A1, “Six membered heteroaromatic inhibitors targeting resistant kinase mutations” (TargeGen, Inc., priority 2005, published 2007).
